Results published in US9663460B2, “Sulfur derivatives as chemokine receptor modulators” (ALLERGAN, INC., priority 2010, dated 2017).

Biological target: CCR2 (Homo sapiens (Human), UniProt P41597)
Assay: Calcium activity assayed on the FLIPR Tetra in HEK-Gqi5 cells stably expressing CCR2
Type: cell-based
Settings: FLIPR Tetra calcium assay
Experimental: HEK-Gqi5 cells stably expressing CCR2 were cultured in (DMEM high glucose, 10% FBS, 1% PSA, 400 μg/ml geneticin and 50 μg/ml hygromycin. Appropriate positive control chemokines (MCP-1, MIP1A or RANTES) was used as the positive control agonist for screening compound-induced calcium activity assayed on the FLIPR^Tetra. The drug plates were prepared in 384-well microplates using the EP3 and the MuItiPROBE robotic liquid handling systems. Compounds were synthesized and tested for CCR^2 activity.

Sequence of CCR2 (P41597 whole entry, species assumed): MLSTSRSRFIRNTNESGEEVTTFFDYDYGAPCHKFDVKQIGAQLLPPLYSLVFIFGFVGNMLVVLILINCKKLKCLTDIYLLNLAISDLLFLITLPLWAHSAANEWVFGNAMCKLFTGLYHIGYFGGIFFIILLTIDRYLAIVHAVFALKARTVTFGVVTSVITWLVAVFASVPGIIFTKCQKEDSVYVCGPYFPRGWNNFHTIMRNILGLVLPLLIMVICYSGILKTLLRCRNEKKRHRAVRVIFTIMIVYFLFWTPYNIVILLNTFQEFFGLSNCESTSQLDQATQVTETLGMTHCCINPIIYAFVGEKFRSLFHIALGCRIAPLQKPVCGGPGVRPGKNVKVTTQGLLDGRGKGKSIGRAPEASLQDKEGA

Compound	CCR2 % ANTAGONISM [%]	IC50 [nM]
Nc1nc(CSc2ccc(Cl)cc2NS(=O)(=O)c2cc3ccccc3o2)cs1 [N-(2-{[(2-amino-1,3-thiazol-4-yl)methyl]thio}-5-chlorophenyl)-1-benzofuran-2-sulfonamide]	102	42
Nc1cccc(CS(=O)(=O)c2ccc(Cl)cc2NS(=O)(=O)c2cc3ccccc3o2)c1 [N-{2-[(3-aminobenzypsulfonyl]-5-chlorophenyl}-1-benzofuran-2-sulfonamide]	90	23
O=S(=O)(Nc1cc(Cl)ccc1[S+]([O-])C(F)(F)F)c1cc2ccccc2o1 (centres unmarked) [N-{5-chloro-2-[(trifluoromethyl)sulfinyl]phenyl}-1-benzofuran-2-sulfonamide]	89	19
C[S+]([O-])c1ccc(Cl)cc1NS(=O)(=O)c1ccc(I)cc1 (centres unmarked) [N-[5-chloro-2-(methylsulfinyl)phenyl]-4-iodobenzenesulfonamide]	95	258
CC(C)(C)OC(=O)Nc1nc(CS(=O)(=O)c2ccc(Cl)cc2NS(=O)(=O)c2cc3ccccc3o2)cs1 [tert-butyl {4-[({2-[(1-benzofuran-2-ylsulfonyl)amino]-4-chlorophenyl}sulfonyl)methyl]-1,3-thiazol-2-yl}carbamate]	72	–
Nc1cc(C[S+]([O-])c2ccc(Cl)cc2NS(=O)(=O)c2cc3ccccc3o2)n[nH]1 (centres unmarked) [N-(2-{[(5-amino-1H-pyrazol-3-yl)methyl]sulfinyl}-5-chlorophenyl)-1-benzofuran-2-sulfonamide]	99	1380
O=[N+]([O-])c1ccc(CS(=O)(=O)c2ccc(Cl)cc2NS(=O)(=O)c2cc3ccccc3o2)cc1 [N-{5-chloro-2-[(4-nitrobenzyl)sulfonyl]phenyl}-1-benzofuran-2-sulfonamide]	20	2160
CCCn1cnc(CSc2ccc(Cl)cc2NS(=O)(=O)c2cc3ccccc3o2)c1 [N-(5-chloro-2-{[(1-propyl-1H-imidazol-4-yl)methyl]thio}phenyl)-1-benzofuran-2-sulfonamide]	79	1280
CN(C)C(=O)CCS(=O)(=O)c1ccc(Cl)cc1NS(=O)(=O)c1ccc(F)cc1F [3-[(4-chloro-2-{[(2,4-difluorophenyl)sulfonyl]amino}phenyl)sulfonyl]-N,N-dimethylpropanamide]	89	1580
O=S(=O)(Nc1cc(Cl)ccc1SCc1ccccn1)c1ccc(Cl)c(C(F)(F)F)c1 [4-chloro-N-{5-chloro-2-[(pyridin-2-ylmethyl)thio]phenyl}-3-(trifluoromethyl)benzenesulfonamide]	79	199
CC(C)(C)OC(=O)Nc1cc(CS(=O)(=O)c2ccc(Cl)cc2NS(=O)(=O)c2cc3ccccc3o2)cc[n+]1[O-] [tert-butyl {4-[({2-[(1-benzofuran-2-ylsulfonyl)amino]-4-chlorophenyl}sulfonyl)methyl]-1-oxidopyridin-2-yl}carbamate]	29	2870
Nc1cccc(CS(=O)(=O)c2ccc(Cl)cc2NS(=O)(=O)c2cccc(Cl)c2)c1 [N-{2-[(3-aminobenzypsulfonyl]-5-chlorophenyl}-3-chlorobenzenesulfonamide]	91	246
O=S(=O)(Nc1cc(Cl)ccc1[S+]([O-])Cc1cccnc1)c1ccc(Cl)c(C(F)(F)F)c1 (centres unmarked) [4-chloro-N-{5-chloro-2-[(pyridin-3-ylmethyl)sulfinyl]phenyl}-3-(trifluoromethyl)benzenesulfonamide]	97	112
C[S+]([O-])c1ccc(Cl)cc1NS(=O)(=O)c1cccs1 (centres unmarked) [N-[5-chloro-2-(methylsulfinyl)phenyl]thiophene-2-sulfonamide]	53	1110
CN(C)C(=O)CCS(=O)(=O)c1ccc(Cl)cc1NS(=O)(=O)c1ccc(Cl)cc1F [3-[(4-chloro-2-{[(4-chloro-2-fluorophenyl)sulfonyl]amino}phenyl)sulfonyl]-N,N-dimethylpropanamide]	97	211
Nc1cc(CSc2ccc(Cl)cc2NS(=O)(=O)c2cc3ccccc3o2)ccn1 [N-(2-{[(2-aminopyridin-4-yl)methyl]thio}-5-chlorophenyl)-1-benzofuran-2-sulfonamide]	100	80
Nc1cccc(CS(=O)(=O)c2ccc(Cl)cc2NS(=O)(=O)c2ccccc2)c1 [N-{2-[(3-aminobenzyl)sulfonyl]-5-chlorophenyl}benzenesulfonamide]	52	1240
CS(=O)(=O)c1ccc(Cl)cc1NS(=O)(=O)c1cc2ccccc2o1 [N-[5-chloro-2-(methylsulfonyl)phenyl]-1-benzofuran-2-sulfonamide]	93	42
CCSc1ccc(Cl)cc1NS(=O)(=O)c1ccc(Cl)c(C(F)(F)F)c1 [4-chloro-N-[5-chloro-2-(ethylthio)phenyl]-3-(trifluoromethyl)benzenesulfonamide]	81	193

Compound	CCR2 % ANTAGONISM [%]	IC50 [nM]
C[S+]([O-])c1ccc(Cl)cc1NS(=O)(=O)c1cc2ccccc2o1 (centres unmarked) [N-[5-chloro-2-(methylsulfinyl)phenyl]-1-benzofuran-2-sulfonamide]	98	11
O=S(=O)(Nc1cc(Cl)ccc1SCc1cccc(O)c1)c1cc2ccccc2o1 [N-{5-chloro-2-[(3-hydroxybenzyl)thio]phenyl}-1-benzofuran-2-sulfonamide]	98	77
O=c1[nH]cc(C[S+]([O-])c2ccc(Cl)cc2NS(=O)(=O)c2cc3ccccc3o2)c(=O)[nH]1 (centres unmarked) [N-(5-chloro-2-{[(2,4-dioxo-1,2,3,4-tetrahydropyrimidin-5-yl)methyl]sulfinyl}phenyl)-1-benzofuran-2-sulfonamide]	21	3080
Nc1ccccc1CS(=O)(=O)c1ccc(Cl)cc1NS(=O)(=O)c1cc2ccccc2o1 [N-{2-[(2-aminobenzyl)sulfonyl]-5-chlorophenyl}-1-benzofuran-2-sulfonamide]	98	129
Nc1cc(CSc2ccc(Cl)cc2NS(=O)(=O)c2cc3ccccc3o2)n[nH]1 [N-(2-{[(5-amino-1H-pyrazol-3-yl)methyl]thio}-5-chlorophenyl)-1-benzofuran-2-sulfonamide]	105	25
Nc1cccc(CSc2ccc(Cl)cc2NS(=O)(=O)c2cccc(Cl)c2)c1 [N-{2-[(3-aminobenzyl)thio]-5-chlorophenyl}-3-chlorobenzenesulfonamide]	95	1460
Nc1cc(CS(=O)(=O)c2ccc(Cl)cc2NS(=O)(=O)c2cc3ccccc3o2)n[nH]1 [N-(2-{[(5-amino-1H-pyrazol-3-yl)methyl]sulfonyl}-5-chlorophenyl)-1-benzofuran-2-sulfonamide]	98	1870
O=S(=O)(Nc1cc(Cl)ccc1[S+]([O-])CCO)c1ccc(Cl)c(C(F)(F)F)c1 (centres unmarked) [4-chloro-N-{5-chloro-2-[(2-hydroxyethyl)sulfinyl]phenyl}-3-(trifluoromethyl)benzenesulfonamide]	101	146
O=S(=O)(Nc1cc(Cl)ccc1S(=O)(=O)C1CCC(O)C1)c1ccc(Cl)c(C(F)(F)F)c1 (centres unmarked) [4-chloro-N-{5-chloro-2-[(3-hydroxycyclopentyl)sulfonyl]phenyl}-3-(trifluoromethyl)benzenesulfonamide]	97	76
O=S(=O)(Nc1cc(Cl)ccc1[S+]([O-])Cc1ncc[nH]1)c1cc2ccccc2o1 (centres unmarked) [N-{5-chloro-2-[(1H-imidazol-2-ylmethyl)sulfinyl]phenyl}-1-benzofuran-2-sulfonamide]	108	1900
Nc1cccc(CS(=O)(=O)c2ccc(Cl)cc2NS(=O)(=O)c2ccc(Cl)cc2F)c1 [N-{2-[(3-aminobenzyl)sulfonyl]-5-chlorophenyl}-4-chloro-2-fluorobenzenesulfonamide]	96	248
O=S(=O)(Nc1cc(Cl)ccc1[S+]([O-])CCc1ccccn1)c1cc2ccccc2o1 (centres unmarked) [N-{5-chloro-2-[(2-pyridin-2-ylethyl)sulfinyl]phenyl}-1-benzofuran-2-sulfonamide]	86	153
Nc1cccc(C[S+]([O-])c2ccc(Cl)cc2NS(=O)(=O)c2ccc(Cl)cc2F)c1 (centres unmarked) [N-{2-[(3-aminobenzyl)sulfinyl]-5-chlorophenyl}-4-chloro-2-fluorobenzenesulfonamide]	95	113
C[S+]([O-])c1ccc(Cl)cc1NS(=O)(=O)c1ccccc1 (centres unmarked) [N-[5-chloro-2-(methylsulfinyl)phenyl]benzenesulfonamide]	48	–
CN(C)C(=O)CCSc1ccc(Cl)cc1NS(=O)(=O)c1ccc(Cl)c(C(F)(F)F)c1 [3-{[4-chloro-2-({[4-chloro-3-(trifluoromethyl)phenyl]sulfonyl}amino)phenyl]thio}-N,N-dimethylpropanamide]	80	506
CS(=O)(=O)c1ccc(Cl)cc1NS(=O)(=O)c1ccco1 [N-[5-chloro-2-(methylsulfonyl)phenyl]furan-2-sulfonamide]	99	345
CSc1ccc(Cl)cc1NS(=O)(=O)c1cc2ccccc2o1 [N-[5-chloro-2-(methylthio)phenyl]-1-benzofuran-2-sulfonamide]	99	26
CSc1ccc(Cl)cc1NS(=O)(=O)c1ccco1 [N-[5-chloro-2-(methylthio)phenyl]furan-2-sulfonamide]	93	940
CN(C)CCCSc1ccc(Cl)cc1NS(=O)(=O)c1cc2ccccc2o1 [N-(5-chloro-2-{[3-(dimethylamino)propyl]thio}phenyl)-1-benzofuran-2-sulfonamide]	106	2040
